Reference: ChEMBL document CHEMBL1201862, “PubChem BioAssay data set” (2004)
Calls of active or inactive are those of the source.

Assays:
[1] = target: T1, Short transient receptor potential channel 4 (Mus musculus, UniProt Q9QUQ5); assay: mouse TRPC4 channel activators, dose response, cell-based, HEK293 TRPC4/mu-opioid, Fluo-4 calcium (AID 434937); assay type: functional
T1 sequence (Q9QUQ5 whole entry): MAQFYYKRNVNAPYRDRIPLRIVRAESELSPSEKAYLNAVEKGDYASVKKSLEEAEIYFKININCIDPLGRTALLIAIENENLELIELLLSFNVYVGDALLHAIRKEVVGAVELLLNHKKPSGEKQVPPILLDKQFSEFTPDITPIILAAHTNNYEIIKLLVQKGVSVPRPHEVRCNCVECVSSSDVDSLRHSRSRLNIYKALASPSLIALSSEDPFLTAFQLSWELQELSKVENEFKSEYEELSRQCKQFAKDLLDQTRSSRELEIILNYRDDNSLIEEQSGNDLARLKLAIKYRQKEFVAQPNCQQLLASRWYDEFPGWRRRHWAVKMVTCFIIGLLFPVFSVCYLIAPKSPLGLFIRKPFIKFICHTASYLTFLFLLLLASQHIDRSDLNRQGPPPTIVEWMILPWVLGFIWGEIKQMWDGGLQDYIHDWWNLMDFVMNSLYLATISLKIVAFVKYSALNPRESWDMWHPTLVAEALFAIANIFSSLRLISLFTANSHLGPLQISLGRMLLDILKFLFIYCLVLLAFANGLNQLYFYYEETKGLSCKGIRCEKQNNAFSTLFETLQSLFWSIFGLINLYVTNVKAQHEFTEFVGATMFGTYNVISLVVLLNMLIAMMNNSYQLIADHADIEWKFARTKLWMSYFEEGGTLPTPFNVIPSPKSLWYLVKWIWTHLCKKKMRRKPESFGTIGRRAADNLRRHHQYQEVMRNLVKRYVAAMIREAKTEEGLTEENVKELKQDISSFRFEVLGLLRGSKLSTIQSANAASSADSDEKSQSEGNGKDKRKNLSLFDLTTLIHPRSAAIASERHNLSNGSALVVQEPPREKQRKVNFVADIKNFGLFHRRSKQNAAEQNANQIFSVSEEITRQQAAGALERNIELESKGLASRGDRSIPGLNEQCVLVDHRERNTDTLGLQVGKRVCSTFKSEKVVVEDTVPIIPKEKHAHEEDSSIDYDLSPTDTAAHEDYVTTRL

cells = assay type: functional
Streptococcus = assay: Group A Streptococcus viability loss, dose response, counter-screen for streptokinase expression inhibitor project, luminescence, BacTiterGlo (AID 1915); assay type: functional, organism-based;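 note: potency for reduction of bacterial viability or growth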
Streptokinase A = target: T2, Streptokinase A (Streptococcus pyogenes serotype M1, UniProt P10520); assay: S. pyogenes streptokinase expression inhibitors, potency, dose response, plasminogen activation absorbance, OD405 (AID 1914); assay type: functional, Streptococcus pyogenes M1 GAS;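 note: secreted streptokinase activity via plasminogen activation per viability signal from cell pellet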
T2 sequence (P10520 whole entry): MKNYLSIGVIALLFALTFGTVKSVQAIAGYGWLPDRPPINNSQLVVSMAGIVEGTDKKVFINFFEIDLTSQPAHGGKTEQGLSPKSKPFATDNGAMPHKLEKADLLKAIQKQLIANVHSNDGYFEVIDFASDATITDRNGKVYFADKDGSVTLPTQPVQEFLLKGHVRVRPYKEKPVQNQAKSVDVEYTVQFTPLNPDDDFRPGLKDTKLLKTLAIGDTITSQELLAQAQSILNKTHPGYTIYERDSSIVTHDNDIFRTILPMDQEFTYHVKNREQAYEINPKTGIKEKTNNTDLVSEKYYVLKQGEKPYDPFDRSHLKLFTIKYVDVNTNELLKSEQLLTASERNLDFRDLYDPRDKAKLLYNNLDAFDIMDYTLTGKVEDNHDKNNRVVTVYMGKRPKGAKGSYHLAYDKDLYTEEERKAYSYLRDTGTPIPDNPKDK

[2] = target: T3, Corticotropin-releasing factor receptor 2/Corticotropin-releasing factor-binding protein (Homo sapiens, UniProt P24387+Q13324); assay: activators of CRF receptor 2 with binding protein – uHTS hits, confirmation (AID 602473); assay type: functional; details: read-out: EC50_Mean
T3 sequence (Q13324 whole entry): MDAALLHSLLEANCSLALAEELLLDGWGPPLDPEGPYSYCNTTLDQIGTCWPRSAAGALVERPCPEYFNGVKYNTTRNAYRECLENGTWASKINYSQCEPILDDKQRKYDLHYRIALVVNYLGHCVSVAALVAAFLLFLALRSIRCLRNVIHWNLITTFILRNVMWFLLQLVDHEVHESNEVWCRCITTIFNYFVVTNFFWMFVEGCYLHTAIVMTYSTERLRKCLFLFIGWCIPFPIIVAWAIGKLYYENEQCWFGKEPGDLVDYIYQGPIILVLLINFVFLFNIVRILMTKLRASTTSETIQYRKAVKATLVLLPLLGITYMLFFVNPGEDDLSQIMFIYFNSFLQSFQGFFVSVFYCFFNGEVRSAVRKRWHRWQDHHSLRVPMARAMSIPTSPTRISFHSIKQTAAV
T3 sequence (P24387 whole entry): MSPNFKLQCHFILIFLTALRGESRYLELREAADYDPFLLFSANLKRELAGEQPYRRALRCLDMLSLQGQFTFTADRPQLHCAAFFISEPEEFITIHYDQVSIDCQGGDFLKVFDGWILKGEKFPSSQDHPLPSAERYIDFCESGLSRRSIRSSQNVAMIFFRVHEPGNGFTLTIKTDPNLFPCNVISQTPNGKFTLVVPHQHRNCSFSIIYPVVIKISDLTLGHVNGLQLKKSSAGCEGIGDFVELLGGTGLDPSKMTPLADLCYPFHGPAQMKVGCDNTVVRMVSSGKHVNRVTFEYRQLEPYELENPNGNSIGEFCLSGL

[3] = Vero E6 cell cytotoxicity, dose response, cytotoxicity control for non-replicating M. tuberculosis project, secondary assay (AID 492998); assay type: functional, VeroE6; details: Vero C1008
[4] = HepG2 cell cytotoxicity, dose response, cytotoxicity control for non-replicating M. tuberculosis project (AID 489018); assay type: functional; details: Mycobacterium tuberculosis
Vero = assay: cells; assay type: functional; details: Chlorocebus sabaeus
[5] = test system: Streptococcus sp. 'group A'; assay: growth inhibition of control SK(-) GAS strain, dose response, counter-screen for streptokinase expression inhibitor project, luminescence, kanamycin, BacTiterGlo, confirmation (AID 1900); assay type: functional, organism-based
[6] = THP-1 cell cytotoxicity, dose response, cytotoxicity control for non-replicating M. tuberculosis project (AID 489025); assay type: functional
[7] = HepG2 cell cytotoxicity, dose response, cytotoxicity control for Shn3 inhibitor project, CellTiter-Glo, cherry-picked (AID 624134); assay type: functional, cell-based
[8] = Shn3 3'UTR reporter inhibitors, dose response, cell-based, Clone20 osteoblasts, firefly luciferase, cherry-picked (AID 624132); assay type: functional;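 note: firefly luciferase luminescence from reporter carrying the Shn3 3'UTR in osteoblasts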
Cytochrome P450 2C9 = Cytochrome P450 2C9 (Homo sapiens, UniProt P11712)
Prothrombin = Prothrombin (Bos taurus, UniProt P00735); assay: thrombin inhibition, dose response, biochemical, fluorescence polarization, uHTS hits (AID 602369); assay type: functional
Mu-type opioid receptor = Mu-type opioid receptor (Homo sapiens, UniProt P35372); assay: HTS Image-Based Screen for Agonists of the MOR Receptor. [Related pubchem assays (depositor defined):AID1777, AID1785, AID1786, AID2133]; assay type: functional;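 note: imaging of beta-arrestin GFP recruitment into spots after receptor activation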
[9] = target: T4, Delta-type opioid receptor (Homo sapiens, UniProt P41143); assay: HTS Image-Based Screen for Agonists of the DOR Receptor. [Related pubchem assays (depositor defined):AID1777, AID1786, AID2133]; assay type: functional
[10] = inhibitors of intracellular T. cruzi replication, confirmation, NIH3T3 host cells, beta-gal luminescence (AID 2044); assay type: functional, cell-based;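 note: intracellular parasites grown in NIH/3T3 mouse fibroblasts as host cells; luminescent beta-galactosidase reporter signal from transgenic T. cruzi replicating inside host cells; inhibitors lower the luminescence signal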
[11] = target: T5, Kappa-type opioid receptor (Homo sapiens, UniProt P41145); assay type: functional
[12] = target: 72 kDa type IV collagenase (Homo sapiens, UniProt P08253); assay: Dose Response validation of uHTS RPN11 inhibitor hits using a MMP-2 Fluorescence assay.; assay type: functional
[13] = target: T4, Delta-type opioid receptor; assay: HTS Image-Based Screen for Antagonists of the DOR Receptor. [Related pubchem assays (depositor defined):AID1777, AID1785, AID1786, AID2133]; assay type: functional
[14] = reduction of Shn3 3'UTR firefly luciferase signal, dose response, Schnurri-3 inhibitor project, cell-based, Clone20 osteoblasts, cherry-pick, set 2 (AID 720490); assay type: functional;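 note: actives lower the luminescence signal as inhibitors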
[15] = target: 26S proteasome non-ATPase regulatory subunit 14 (Homo sapiens, UniProt O00487); assay: inhibition of proteasome subunit RPN11 – biochemical, fluorescence polarization, uHTS hits, confirmation (AID 602368); assay type: functional
[16] = cytotoxicity toward NIH3T3 fibroblasts, dose response, counter-screen, cell-based, ATP luminescence, mouse fibroblasts (AID 2010); assay type: functional;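 note: cells exposed to compound for about 90 hours before reading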
[17] = target: T6, Type-1 angiotensin II receptor (Homo sapiens, UniProt P30556); assay: AT1 receptor antagonists, dose response, selectivity assay for APJ receptor antagonist project, cell-based, uHTS hits (AID 463214); assay type: functional;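 note: antagonist potency against angiotensin II stimulated AT1 response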
T6 sequence (P30556 whole entry): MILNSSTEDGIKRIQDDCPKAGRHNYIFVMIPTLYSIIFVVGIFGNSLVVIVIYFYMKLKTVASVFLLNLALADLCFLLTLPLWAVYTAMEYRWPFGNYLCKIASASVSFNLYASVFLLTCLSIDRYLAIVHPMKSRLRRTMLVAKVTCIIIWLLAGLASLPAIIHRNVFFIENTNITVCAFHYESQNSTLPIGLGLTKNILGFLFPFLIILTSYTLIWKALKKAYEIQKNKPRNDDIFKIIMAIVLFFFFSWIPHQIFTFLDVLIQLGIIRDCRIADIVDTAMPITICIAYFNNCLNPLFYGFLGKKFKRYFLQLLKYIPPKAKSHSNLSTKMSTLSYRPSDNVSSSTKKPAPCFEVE

Beta-galactosidase [18] = target: T7, Beta-galactosidase (Escherichia coli, UniProt Q8VNN2); assay type: functional
Beta-galactosidase [19] = target: T7, Beta-galactosidase; assay: PubChem AID 485352; assay type: functional
[20] = target: T5, Kappa-type opioid receptor; assay type: functional; remark: listed apart in the source
[21] = target: Alkaline phosphatase, placental type (Homo sapiens, UniProt P05187); assay: PLAP enzyme inhibitors, confirmation, biochemical, luminescence (AID 1512); assay type: functional
Sequence of Alkaline phosphatase, placental type (P05187 whole entry): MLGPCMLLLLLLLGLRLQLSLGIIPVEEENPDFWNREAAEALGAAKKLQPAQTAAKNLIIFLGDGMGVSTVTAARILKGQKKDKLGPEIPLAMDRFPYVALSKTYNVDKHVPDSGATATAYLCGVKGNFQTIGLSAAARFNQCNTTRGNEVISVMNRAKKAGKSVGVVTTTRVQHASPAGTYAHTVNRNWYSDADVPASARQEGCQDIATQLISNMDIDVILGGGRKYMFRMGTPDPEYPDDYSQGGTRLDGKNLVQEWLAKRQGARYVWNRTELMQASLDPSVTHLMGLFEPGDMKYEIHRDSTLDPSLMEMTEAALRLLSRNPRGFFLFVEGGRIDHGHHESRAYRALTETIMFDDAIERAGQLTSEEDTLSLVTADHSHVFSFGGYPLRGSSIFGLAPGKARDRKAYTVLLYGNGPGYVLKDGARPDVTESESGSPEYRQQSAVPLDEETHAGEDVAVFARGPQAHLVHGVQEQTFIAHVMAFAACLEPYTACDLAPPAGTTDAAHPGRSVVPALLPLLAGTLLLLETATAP

T4 sequence (P41143 whole entry): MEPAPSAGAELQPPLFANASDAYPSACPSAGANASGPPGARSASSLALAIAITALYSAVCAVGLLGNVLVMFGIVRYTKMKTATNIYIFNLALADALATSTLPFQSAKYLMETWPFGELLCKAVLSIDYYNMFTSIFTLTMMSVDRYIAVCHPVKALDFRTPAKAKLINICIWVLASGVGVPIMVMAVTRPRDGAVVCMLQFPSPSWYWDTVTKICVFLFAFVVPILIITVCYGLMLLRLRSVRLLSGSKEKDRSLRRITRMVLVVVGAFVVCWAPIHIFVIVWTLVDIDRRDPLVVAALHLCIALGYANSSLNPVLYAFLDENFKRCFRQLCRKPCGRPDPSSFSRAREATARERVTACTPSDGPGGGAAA
T7 sequence (Q8VNN2 whole entry): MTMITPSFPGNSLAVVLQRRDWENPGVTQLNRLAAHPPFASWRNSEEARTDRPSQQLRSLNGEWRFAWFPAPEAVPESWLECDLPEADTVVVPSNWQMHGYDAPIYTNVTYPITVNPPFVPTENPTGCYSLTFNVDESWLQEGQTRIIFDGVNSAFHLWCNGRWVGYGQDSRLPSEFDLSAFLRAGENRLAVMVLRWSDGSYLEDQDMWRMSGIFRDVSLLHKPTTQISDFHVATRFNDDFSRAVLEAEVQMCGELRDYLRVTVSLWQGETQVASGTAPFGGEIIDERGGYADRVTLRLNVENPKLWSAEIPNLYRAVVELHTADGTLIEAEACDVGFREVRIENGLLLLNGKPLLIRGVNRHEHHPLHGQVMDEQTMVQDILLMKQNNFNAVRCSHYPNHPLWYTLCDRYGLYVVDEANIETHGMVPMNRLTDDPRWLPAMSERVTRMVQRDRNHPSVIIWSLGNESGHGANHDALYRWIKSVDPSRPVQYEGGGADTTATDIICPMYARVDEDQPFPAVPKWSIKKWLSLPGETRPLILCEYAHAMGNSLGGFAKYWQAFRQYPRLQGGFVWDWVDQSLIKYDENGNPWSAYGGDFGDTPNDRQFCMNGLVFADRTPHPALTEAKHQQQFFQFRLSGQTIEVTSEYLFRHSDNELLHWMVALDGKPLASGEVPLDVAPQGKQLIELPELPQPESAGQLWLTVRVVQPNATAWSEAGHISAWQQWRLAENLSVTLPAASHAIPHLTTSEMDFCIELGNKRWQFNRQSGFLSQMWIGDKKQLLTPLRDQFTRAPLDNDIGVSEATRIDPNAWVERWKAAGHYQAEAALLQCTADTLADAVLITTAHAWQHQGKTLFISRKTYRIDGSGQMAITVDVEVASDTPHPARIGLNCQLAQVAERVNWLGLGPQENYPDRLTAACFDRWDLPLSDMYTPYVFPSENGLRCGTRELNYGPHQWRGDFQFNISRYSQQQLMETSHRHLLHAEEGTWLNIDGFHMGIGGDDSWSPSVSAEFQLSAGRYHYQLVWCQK
T5 sequence (P41145 whole entry): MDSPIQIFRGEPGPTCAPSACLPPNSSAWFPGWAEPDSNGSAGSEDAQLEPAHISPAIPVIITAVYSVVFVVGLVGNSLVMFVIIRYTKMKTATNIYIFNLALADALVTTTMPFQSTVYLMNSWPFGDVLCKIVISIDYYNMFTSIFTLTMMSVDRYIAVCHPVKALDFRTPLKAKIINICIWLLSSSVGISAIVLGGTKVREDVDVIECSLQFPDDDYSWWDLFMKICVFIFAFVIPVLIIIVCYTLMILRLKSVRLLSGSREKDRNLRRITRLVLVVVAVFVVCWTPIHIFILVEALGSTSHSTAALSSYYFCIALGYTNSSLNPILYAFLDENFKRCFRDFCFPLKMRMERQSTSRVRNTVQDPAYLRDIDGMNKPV
Sequence of Mu-type opioid receptor (P35372 whole entry): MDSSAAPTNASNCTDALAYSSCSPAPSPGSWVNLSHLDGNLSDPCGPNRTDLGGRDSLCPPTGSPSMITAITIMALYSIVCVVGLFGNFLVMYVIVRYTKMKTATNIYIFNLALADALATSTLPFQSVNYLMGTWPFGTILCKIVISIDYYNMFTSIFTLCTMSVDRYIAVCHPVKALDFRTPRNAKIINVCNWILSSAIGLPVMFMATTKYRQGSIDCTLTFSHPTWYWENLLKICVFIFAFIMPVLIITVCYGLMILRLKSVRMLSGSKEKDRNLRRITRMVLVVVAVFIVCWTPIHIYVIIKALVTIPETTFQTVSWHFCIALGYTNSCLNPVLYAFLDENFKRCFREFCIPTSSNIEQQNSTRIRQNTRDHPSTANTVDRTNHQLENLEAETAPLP
Sequence of Cytochrome P450 2C9 (P11712 whole entry): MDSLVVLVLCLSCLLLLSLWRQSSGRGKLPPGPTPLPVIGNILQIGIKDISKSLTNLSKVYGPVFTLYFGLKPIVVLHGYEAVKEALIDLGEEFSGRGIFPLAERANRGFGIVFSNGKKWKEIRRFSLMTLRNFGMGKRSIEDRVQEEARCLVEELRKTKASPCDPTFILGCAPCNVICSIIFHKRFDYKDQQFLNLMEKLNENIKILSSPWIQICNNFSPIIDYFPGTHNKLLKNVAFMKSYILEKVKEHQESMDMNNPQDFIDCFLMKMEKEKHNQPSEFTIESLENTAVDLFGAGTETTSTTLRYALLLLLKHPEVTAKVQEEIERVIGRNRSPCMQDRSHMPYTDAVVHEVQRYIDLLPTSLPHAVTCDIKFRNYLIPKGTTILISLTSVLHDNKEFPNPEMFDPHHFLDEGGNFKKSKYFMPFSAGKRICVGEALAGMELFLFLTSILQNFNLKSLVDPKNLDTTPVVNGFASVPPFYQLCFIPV
Sequence of 26S proteasome non-ATPase regulatory subunit 14 (O00487 whole entry): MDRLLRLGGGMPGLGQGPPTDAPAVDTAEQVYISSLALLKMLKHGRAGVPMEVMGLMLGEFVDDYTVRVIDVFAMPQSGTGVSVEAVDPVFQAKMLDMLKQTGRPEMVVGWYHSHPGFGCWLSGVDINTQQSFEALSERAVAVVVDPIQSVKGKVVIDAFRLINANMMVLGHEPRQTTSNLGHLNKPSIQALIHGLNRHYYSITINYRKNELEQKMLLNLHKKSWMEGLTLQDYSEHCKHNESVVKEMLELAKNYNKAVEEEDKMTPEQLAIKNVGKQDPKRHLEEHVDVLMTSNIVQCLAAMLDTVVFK
Sequence of 72 kDa type IV collagenase (P08253 whole entry): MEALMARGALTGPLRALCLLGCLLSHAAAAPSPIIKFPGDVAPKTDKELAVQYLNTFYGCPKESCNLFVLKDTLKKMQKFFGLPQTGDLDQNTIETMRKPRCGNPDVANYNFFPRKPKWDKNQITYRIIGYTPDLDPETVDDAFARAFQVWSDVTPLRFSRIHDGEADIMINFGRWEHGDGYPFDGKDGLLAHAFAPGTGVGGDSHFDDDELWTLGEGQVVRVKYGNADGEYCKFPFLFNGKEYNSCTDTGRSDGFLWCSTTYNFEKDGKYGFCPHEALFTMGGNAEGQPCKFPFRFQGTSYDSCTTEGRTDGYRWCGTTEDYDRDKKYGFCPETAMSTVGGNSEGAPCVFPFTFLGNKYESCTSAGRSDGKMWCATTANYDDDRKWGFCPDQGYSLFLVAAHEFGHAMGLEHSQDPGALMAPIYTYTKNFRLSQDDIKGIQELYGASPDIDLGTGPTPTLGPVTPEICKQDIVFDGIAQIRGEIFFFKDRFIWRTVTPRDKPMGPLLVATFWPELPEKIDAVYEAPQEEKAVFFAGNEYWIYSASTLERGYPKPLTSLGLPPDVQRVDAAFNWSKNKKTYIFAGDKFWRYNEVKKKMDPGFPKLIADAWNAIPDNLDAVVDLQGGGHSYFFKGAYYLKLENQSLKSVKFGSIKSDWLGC

CC1(C(=O)NC(=S)NNC(=O)c2ccncc2)CCCCC1
EC50 [1]: 11.9 µM (active) | IC50 (cells): 1.06 µM (active) | EC50 (Streptococcus): 21.1 µM (active) | EC50 (Streptokinase A): > 150 µM (not active) | EC50 [2]: 4.91 µM (active) | CC50 [3]: 13.4 µM (active) | CC50 [4]: > 20 µM (active) | CC50 (Vero): > 25 µM (active) | EC50 [5]: 1.59 µM (active) | CC50 [6]: 9 µM (active)

Cc1cccc(CSc2cccc3cccnc23)c1
AC50 [7]: > 70 µM (inactive) | AC50 [8]: 2.54 µM (active) | AC50 (Cytochrome P450 2C9): inconclusive | IC50 (Prothrombin): > 100 µM (inactive) | EC50 (Mu-type opioid receptor): > 32 µM (inactive) | EC50 [9]: > 32 µM (inactive) | EC50 [10]: 0.307 µM (active) | IC50 [11]: 8.68 µM (active) | IC50 [12]: > 100 µM (inactive) | IC50 [13]: > 32 µM (inactive) | AC50 [14]: 7.99 µM (active) | IC50 [15]: 21.5 µM (active) | EC50 [16]: 9.65 µM (active) | IC50 [17]: 10.1 µM (active) | EC50 (Beta-galactosidase [18]): > 31.5 µM (inactive) | EC50 (Beta-galactosidase [19]): > 40 µM (inactive) | IC50 [20]: > 32 µM

CC(=O)NNc1ncnc2c1cnn2-c1ccc(C)cc1
IC50 [21]: > 100 µM (inactive)

COc1cc2c(c(OC)c1OC)-c1c(cc3c(c1OC)OCO3)C1OC2[C@@H](C)[C@H]1C (some centres undefined)
EC50 (Mu-type opioid receptor): > 32 µM (inactive) | EC50 [9]: > 32 µM (inactive) | IC50 [11]: 10 µM (active) | IC50 [13]: > 32 µM (inactive) | EC50 (Beta-galactosidase [18]): > 31.5 µM (inactive) | IC50 [20]: 9.42 µM
